From US12435051B2, “Dual modulator of mGluR5 and 5-HT2A receptor, and use thereof” (Vivozon Inc., priority 2020, dated 2025)
Like-named read-outs stand apart in the source and are kept apart here.

Key:
human 5-HT2AR = biological target: T1, human 5-HT2AR (Homo sapiens, UniProt P28223); test: HTRF-based IP1 accumulation assay (5-HT2AR antagonistic effect); assay type: cell-based; conditions: HEK293 cells overexpressing human 5-HT2AR; serotonin at EC80
T1 construct: expressed in transfected cells; host or cells: HEK293
In short: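 HEK293 cells stably overexpressing human 5-HT2AR were pre-incubated with compound (top 10 μM, serial dilutions, LiCl buffer) 10 min at room temperature, then stimulated with EC80 serotonin 30 min at 37 °C. IP1 accumulation was read by HTRF; IC50s came from activity normalized to serotonin and IP1 controls.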

[1] = test system: physical (tactile) allodynia in spinal nerve ligation model; test: Analgesic efficacy experiment using animal model (Chung model, spinal nerve ligation); assay type: in vivo, Sprague-Dawley rats; conditions: rat, oral; for inhibition in vivo at 50 mg/kg: 50 mpk; for inhibition in vivo at 100 mg/kg: 100 mpk
Method: The Chung model (spinal nerve ligation model) is a representative animal model to study neuropathic pain and is widely accepted as a gold standard for an animal pain model by global pharmaceutical companies around the world.
In this experiment, male Sprague-Dawley rats (100-120 g) purchased from Koatech (Pyeongtaek-si, Gyeonggi-do) were used. Rats were kept in a room maintained at constant temperature and humidity with a 12 hour light-dark cycle. Rats were allowed to eat and drink freely during the experiment.
For the Chung surgery, rats were anesthetized by isoflurane inhalation and the left lumbar nerves L5 and L6 were tightly tied with a suture thread (6-0 silk thread) at the end of the dorsal ganglion and at a front of an entrance to the sciatic nerve according to the article (Kim and Chung (1992), Pain 50(3):355-63). After suturing the incision, the rats were recovered for 2 weeks in the controlled maintenance room to induce physical allodynia in the left hind paw of the rat. To measure physical (tactile) allodynia, the rats were placed in a cage with a wire mesh on the bottom. Stimuli of increasing intensity (using the von Frey filaments in a range of 0.41 to 15.8 g) were placed on the plantar surface on the side of the nerve injury. The stimulus intensity at which the pain response (abrupt lifting, licking or sucking of the foot) was induced was recorded while applying gradual increment of stimuli. As described in the study of Chaplan et al. (1994) (Chaplan et al. (1994) J. Neurosci. Methods 53(1):55-63), the paw withdrawal threshold (PWT) was determined by increasing or decreasing continuous stimulus intensity, and the result was analyzed by applying Dixon's up-down method. Only rats showing no behavior dysfunction (e.g., feet dragging or dropping) were selected and included in the study, and the PWT of the rats used was 3.16 g or less.
After measuring the degree of basic reaction before drug injection, each compound and solvent were injected by oral administration (12.5-100 mg/kg), and the measurement was repeated at regular time intervals (60 and 120 minutes) after the drug was injected.
The experimenter conducted the PWT measurement in a blind condition not knowing which rat was administered with which drug. The control group was administered with gabapentin (65 mg/kg, intraperitoneal administration), and was randomly mixed during the measurement. Statistical analysis was performed on the measured pain response threshold by calculating the reversal rate (% reversal) from pain in Equation 1 below. […] Pain reversal rate (% reversal)=[(PWT after drug administration)−(PWT before drug administration)]*100/[(15 g, Estimated PWT in normal animals)−(PWT before drug administration)] [Equation 1]
The PWT used in this time is a value obtained by multiplying the gram, the unit of “force” measure, by 10,000, and taking the logarithm, which is a method generally used in academia.
Each experiment consisted of the compound group, the solvent group of the compound and the gabapentin (GBP) group as positive control group. As solvent of the compound, 0.5% HPMC (hydroxypropylmethyl cellulose) was used.

mGluR5 = biological target: T2, mGluR5 (Homo sapiens, UniProt P41594); test: Fluorescence-based Ca2+ mobilization assay; assay type: cell-based; conditions: HEK293 cells overexpressing mGluR5; L-glutamate at EC80
T2 construct: expressed in transfected cells; host or cells: HEK293
In short: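 HEK293 cells stably overexpressing mGluR5, dye-loaded 60 min at 37 °C, then preincubated with compound 30 min at room temperature in the dark. Ca2+ response to L-glutamate at EC80 read on FLIPR for 2 min. Signal normalised to glutamate (100%) and vehicle (0%); IC50 from % inhibition.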

[2] = 1 h, read-out: % reversal (1 h)
[3] = 2 h, read-out: % reversal (2 h)

T1 sequence (P28223 whole entry): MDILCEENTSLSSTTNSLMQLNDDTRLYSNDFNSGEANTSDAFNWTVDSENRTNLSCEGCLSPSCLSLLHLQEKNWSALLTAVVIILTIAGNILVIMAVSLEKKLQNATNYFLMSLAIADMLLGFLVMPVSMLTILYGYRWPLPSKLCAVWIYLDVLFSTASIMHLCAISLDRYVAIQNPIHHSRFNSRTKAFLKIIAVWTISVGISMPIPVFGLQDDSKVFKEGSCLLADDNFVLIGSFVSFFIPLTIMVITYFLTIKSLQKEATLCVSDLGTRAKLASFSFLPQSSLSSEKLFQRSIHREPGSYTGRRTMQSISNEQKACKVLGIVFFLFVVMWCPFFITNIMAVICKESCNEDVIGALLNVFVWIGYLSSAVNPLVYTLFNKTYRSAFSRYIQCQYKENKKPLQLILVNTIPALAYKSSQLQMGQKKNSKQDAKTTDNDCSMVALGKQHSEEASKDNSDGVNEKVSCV
T2 sequence (P41594 21-1212): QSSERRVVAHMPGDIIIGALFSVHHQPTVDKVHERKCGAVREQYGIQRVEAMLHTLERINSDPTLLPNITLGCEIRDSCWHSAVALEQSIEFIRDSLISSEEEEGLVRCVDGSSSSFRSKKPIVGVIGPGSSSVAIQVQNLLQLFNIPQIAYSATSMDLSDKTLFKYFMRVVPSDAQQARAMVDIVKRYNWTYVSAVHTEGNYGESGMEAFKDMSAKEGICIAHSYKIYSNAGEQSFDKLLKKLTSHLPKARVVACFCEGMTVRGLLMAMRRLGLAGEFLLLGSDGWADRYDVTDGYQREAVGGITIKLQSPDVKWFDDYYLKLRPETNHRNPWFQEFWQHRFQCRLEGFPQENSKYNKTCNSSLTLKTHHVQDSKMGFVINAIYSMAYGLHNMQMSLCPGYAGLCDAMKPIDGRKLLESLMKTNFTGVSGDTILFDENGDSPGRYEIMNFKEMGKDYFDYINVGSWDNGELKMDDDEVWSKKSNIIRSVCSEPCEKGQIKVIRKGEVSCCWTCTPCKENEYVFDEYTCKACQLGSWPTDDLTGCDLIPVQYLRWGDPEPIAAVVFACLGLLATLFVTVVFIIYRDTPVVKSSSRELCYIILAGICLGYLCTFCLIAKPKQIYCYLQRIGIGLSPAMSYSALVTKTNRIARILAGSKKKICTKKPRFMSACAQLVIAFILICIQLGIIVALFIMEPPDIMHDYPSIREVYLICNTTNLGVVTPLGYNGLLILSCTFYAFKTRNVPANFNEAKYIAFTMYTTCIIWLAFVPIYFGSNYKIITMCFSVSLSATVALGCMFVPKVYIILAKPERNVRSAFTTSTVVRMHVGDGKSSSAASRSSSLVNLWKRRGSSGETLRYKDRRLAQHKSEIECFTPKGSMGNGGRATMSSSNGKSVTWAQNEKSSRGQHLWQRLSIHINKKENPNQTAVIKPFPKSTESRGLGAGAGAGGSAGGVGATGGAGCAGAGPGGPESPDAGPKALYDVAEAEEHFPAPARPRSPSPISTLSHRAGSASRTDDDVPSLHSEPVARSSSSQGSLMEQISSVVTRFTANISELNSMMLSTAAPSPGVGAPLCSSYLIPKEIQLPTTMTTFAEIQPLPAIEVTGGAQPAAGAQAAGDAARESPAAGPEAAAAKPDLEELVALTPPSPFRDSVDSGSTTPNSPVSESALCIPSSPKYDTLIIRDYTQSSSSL

Compound | IC50 (human 5-HT2AR) | inhibition in vivo at 50 mg/kg [1, 2] | inhibition in vivo at 50 mg/kg [1, 3] | IC50 (mGluR5) | inhibition in vivo at 100 mg/kg [1, 2] | inhibition in vivo at 100 mg/kg [1, 3]
O=C(NCC1(NC2CC2)CCOCC1)c1ccc(C#Cc2ccccc2F)cc1 [Example 22, N-((4-(cyclopropylamino)tetrahydro-2H-pyran-4-yl)methyl)-4-((2-fluorophenyl)ethynyl)benzamide] | < 100 nM | 19.3% | 77.5% | 100 to 500 nM | – | –
O=C(NCC1CCCC(O)C1)c1ccc(C#Cc2ccccc2F)cc1 (centres unmarked) [Example 64, 4-((2-fluorophenyl)ethynyl)-N-((3-hydroxycyclohexyl)methyl)benzamide] | 500 to 1000 nM | 10.4% | 45.2% | < 100 nM | – | –
O=C(NCC1(NC2CC2)CCCCCC1)c1ccc(C#Cc2ccccc2F)cc1 [Example 12, N-((1-(cyclopropylamino)cycloheptyl)methyl)-4-((2-fluorophenyl)ethynyl)benzamide] | 100 to 500 nM | – | – | 100 to 500 nM | 53.8% | 74.8%
CC(C)NC1(CNC(=O)c2ccc(C#Cc3ccccc3)cc2)CCCCC1 [Example 55, N-((1-(isopropylamino)cyclohexyl)methyl)-4-(phenylethynyl)benzamide] | < 100 nM | – | – | 1000 to 2000 nM | 68.9% | 80.2%
O=C(NCC1COCCO1)c1ccc(C#Cc2ccccc2F)cc1 (centres unmarked) [Example 51, N-((1,4-dioxan-2-yl)methyl)-4-((2-fluorophenyl)ethynyl)benzamide] | 100 to 500 nM | 5.97% | 14.5% | < 100 nM | – | –
C[C@]1(O)C[C@@H](CNC(=O)c2ccc(C#Cc3ccccc3F)cc2)C1 [Example 87, 4-((2-fluorophenyl)ethynyl)-N-(((1s,3s)-3-hydroxy-3-methylcyclobutyl)methyl)benzamide] | 100 to 500 nM | 93.7% | 104% | < 100 nM | – | –
O=C(NCC1CCOCC1)c1ccc(C#Cc2ccc(F)cc2F)cc1 [Example 44, 4-((2,4-difluorophenyl)ethynyl)-N-((tetrahydro-2H-pyran-4-yl)methyl)benzamide] | < 100 nM | 3.45% | 9.13% | 500 to 1000 nM | – | –
O=C(NCC1CCOC1)c1ccc(C#Cc2ccccc2F)cc1 (centres unmarked) [Example 43, 4-((2-fluorophenyl)ethynyl)-N-((tetrahydrofuran-3-yl)methyl)benzamide] | 100 to 500 nM | 72.9% | 90.8% | < 100 nM | – | –
O=C(NCC1(CO)CCCCC1)c1ccc(C#Cc2ccccc2F)cc1 [Example 37, 4-((2-fluorophenyl)ethynyl)-N-((1-(hydroxymethyl)cyclohexyl)methyl)benzamide] | 100 to 500 nM | – | – | < 100 nM | 37.1% | 18.8%
O=C(NCC1CCCCC1O)c1ccc(C#Cc2ccccc2F)cc1 (centres unmarked) [Example 63, 4-((2-fluorophenyl)ethynyl)-N-((2-hydroxycyclohexyl)methyl)benzamide] | 100 to 500 nM | 70.9% | 42.1% | < 100 nM | – | –
O=C(NCC1CCOC1)c1ccc(C#Cc2ccc(F)cc2)cc1 (centres unmarked) [Example 94, 4-((4-fluorophenyl)ethynyl)-N-((tetrahydrofuran-3-yl)methyl)benzamide] | 100 to 500 nM | 74.2% | 97.7% | 100 to 500 nM | – | –
